Values joined by “and” are separate entries in the source; they are usually repeats but may differ in a detail not shown here. Equal entries are not always repeated.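 Tested at 5 concentrations; 48 h exposure; 96-well plates; endpoints linearly interpolated, else capped at highest concentration. Here, GI50 denotes the concentration required for 50% inhibition of growth.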 Active and inactive are the calls of the source. No stated cut-off is given here; in the data, active = GI50 up to about 1.1 µM and inactive = higher.
How the values were obtained:
Assay in all cases: NCI-60 cell line screen, 48 h
SNB-19 = system: SNB-19
T47D = system: T47D
SF-268 = system: SF-268
HT-29 = system: HT-29
SK-MEL-2 = system: SK-MEL-2
HOP-62 = system: HOP-62
SK-OV-3 = system: SK-OV-3
786-0 = system: 786-0
MOLT-4 = system: MOLT-4
HCT-15 = system: HCT-15
MCF7 = system: MCF7
SW-620 = system: SW-620
OVCAR-3 = system: OVCAR-3
HCC 2998 = system: HCC 2998
IGROV-1 = system: IGROV-1
Malme-3M = system: Malme-3M
MDA-MB-231 = system: MDA-MB-231
SK-MEL-28 = system: SK-MEL-28
DLD-1 = system: DLD-1
UO-31 = system: UO-31

SMILES	GI50 (SNB-19)	GI50 (T47D)	GI50 (SF-268)	GI50 (HT-29)	GI50 (SK-MEL-2)	GI50 (HOP-62)	GI50 (SK-OV-3)	GI50 (786-0)	GI50 (MOLT-4)	GI50 (HCT-15)	GI50 (MCF7)	GI50 (SW-620)	GI50 (OVCAR-3)	GI50 (HCC 2998)	GI50 (IGROV-1)	GI50 (Malme-3M)	GI50 (MDA-MB-231)	GI50 (SK-MEL-28)	GI50 (DLD-1)	GI50 (UO-31)
CN(C)CCNc1ccc2ncn3c4ccc(O)cc4c(=O)c1c23	0.92 µM (active)	10.2 µM (inactive)	0.893 µM (active)	1.06 µM (active)	3.79 µM (inactive)	0.153 µM (active)	1.29 µM (inactive)	0.612 µM (active)	0.0258 µM (active)	0.715 µM	0.0832 µM (active)	0.281 µM (active)	3.04 µM (inactive)	2.12 µM (inactive)	1.09 µM (active)	2.64 µM (inactive)	1.67 µM (inactive)	4.53 µM (inactive)	1.08 µM (active)	0.845 µM (active)
O=c1oc2c3ccc4ccccc4c3n(Cc3nc4ccccc4[nH]3)c2c2ccccc12	4.5 µM (inactive)	–	15.6 µM (inactive)	4.48 µM (inactive)	41.3 µM (inactive)	4.16 µM (inactive)	> 100 µM (inactive)	7.16 µM (inactive)	1.11 µM (active)	1.37 µM	–	2.2 µM (inactive)	7.08 µM (inactive)	40.4 µM (inactive)	> 29.3 µM (inactive)	> 100 µM (inactive)	–	> 26.7 µM (inactive)	5.73 µM (inactive)	1.95 µM (inactive)
O/N=C/c1ccc(O)c(O)c1	> 100 µM (inactive)	–	> 100 µM (inactive)	> 100 µM (inactive)	> 100 µM (inactive)	> 100 µM (inactive)	> 100 µM (inactive)	> 100 µM (inactive)	20.5 µM (inactive)	44.1 µM	–	15.4 µM (inactive)	31.8 µM (inactive)	> 100 µM (inactive)	65 µM (inactive)	> 100 µM (inactive)	–	> 100 µM (inactive)	> 100 µM (inactive)	54 µM (inactive)
Cc1cc(NS(=O)(=O)c2ccc(NC(=O)c3cccc4c(=O)c5ccccc5[nH]c34)cc2)no1	36.2 µM (inactive)	–	30.5 µM (inactive)	43.1 µM (inactive)	34.7 µM (inactive)	21.6 µM (inactive)	14.9 µM (inactive)	10.2 µM (inactive)	39.4 µM (inactive)	66.7 µM	–	55.6 µM (inactive)	29.4 µM (inactive)	36.5 µM (inactive)	40.5 µM (inactive)	63.1 µM (inactive)	–	41.2 µM (inactive)	61.4 µM (inactive)	15.7 µM (inactive)
CCCCN/C(=N/C#N)NCc1ccccc1	> 100 µM (inactive)	–	> 100 µM (inactive)	> 100 µM (inactive)	> 100 µM (inactive)	> 100 µM (inactive)	> 100 µM (inactive)	> 100 µM (inactive)	> 100 µM (inactive)	> 100 µM	–	> 100 µM (inactive)	> 100 µM (inactive)	88.5 µM (inactive)	> 100 µM (inactive)	> 100 µM (inactive)	–	> 100 µM (inactive)	> 100 µM (inactive)	> 100 µM (inactive)
C(/COc1cccnc1)=N\NC1=NCCN1	> 100 µM (inactive)	–	> 100 µM (inactive)	> 100 µM (inactive)	> 100 µM (inactive)	> 100 µM (inactive)	> 100 µM (inactive)	> 100 µM (inactive)	> 100 µM (inactive)	> 100 µM	–	> 100 µM (inactive)	> 100 µM (inactive)	> 100 µM (inactive)	> 100 µM (inactive)	> 100 µM (inactive)	–	> 100 µM (inactive)	> 100 µM (inactive)	> 100 µM (inactive)
CCOC(=O)c1sc2c(C(=O)OCC)n3ccccc3c2c1N	31.7 µM (inactive)	–	21.7 µM (inactive)	> 100 µM (inactive)	> 100 µM (inactive)	19.2 µM (inactive)	38 µM (inactive)	36.2 µM (inactive)	> 100 µM (inactive)	> 100 µM	–	> 100 µM (inactive)	> 100 µM (inactive)	> 100 µM (inactive)	> 100 µM (inactive)	> 100 µM (inactive)	–	> 100 µM (inactive)	82.2 µM (inactive)	26.1 µM (inactive)
CCOC(=O)C(=O)Nc1nc2c(s1)C(=O)c1ccccc1C2=O	17.9 µM (inactive)	–	14.1 µM (inactive)	14.4 µM (inactive)	17.2 µM (inactive)	18.9 µM (inactive)	> 10 µM (inactive)	17.4 µM (inactive)	2.32 µM (inactive)	15.6 µM	–	13.4 µM (inactive)	5.62 µM (inactive)	17.7 µM (inactive)	19.1 µM (inactive)	12.3 µM (inactive)	–	14.3 µM (inactive)	15.3 µM (inactive)	14.8 µM (inactive)
CCN(CC)CCCNc1ccc2nc(C)n3c4ccc(O)cc4c(=O)c1c23	6.7 µM (inactive)	15.4 µM (inactive)	1.96 µM (inactive)	1.17 µM (inactive)	6.35 µM (inactive)	3.21 µM (inactive)	6.64 µM (inactive)	1.81 µM (inactive)	0.301 µM (active)	3.62 µM	0.863 µM (active)	0.957 µM (active)	8.09 µM (inactive)	7.43 µM (inactive)	1.64 µM (inactive)	10.7 µM (inactive)	–	12.7 µM (inactive)	1.2 µM (inactive)	5.89 µM (inactive)
CCN1/C(=C/C(C)=C/c2sc3ccccc3[n+]2CC)Sc2ccccc21	0.0214 µM (active)	–	0.447 µM (active)	0.307 µM (active)	0.201 µM (active)	0.122 µM (active)	0.0769 µM (active)	0.418 µM (active)	0.0637 µM (active)	0.395 µM	–	0.122 µM (active)	0.172 µM (active)	0.255 µM (active)	0.279 µM (active)	0.37 µM (active)	–	0.0285 µM (active)	0.207 µM (active)	0.0811 µM (active)
O=CN/C=C/c1ccc(O)c(O)c1	> 100 µM (inactive)	–	> 100 µM (inactive)	> 100 µM (inactive)	> 100 µM (inactive)	> 100 µM (inactive)	> 100 µM (inactive)	> 100 µM (inactive)	> 100 µM (inactive)	> 100 µM	–	> 100 µM (inactive)	> 100 µM (inactive)	> 100 µM (inactive)	> 100 µM (inactive)	> 100 µM (inactive)	–	> 100 µM (inactive)	> 100 µM (inactive)	> 100 µM (inactive)
COc1cc(-c2oc3c(OC)c(OC)cc(O)c3c(=O)c2OC)ccc1O [TERNATIN]	41.6 µM (inactive) and 49.8 µM (inactive)	8.32 µM (inactive)	–	> 100 µM (inactive)	–	–	1.17 µM (inactive) and 2.19 µM (inactive)	6.32 µM (inactive) and 12 µM (inactive)	12.7 µM (inactive)	4.54 µM and 6.24 µM	21.1 µM (inactive)	–	11.7 µM (inactive)	–	4.89 µM (inactive) and 4.1 µM (inactive)	13.1 µM (inactive) and 9.59 µM (inactive)	15.2 µM (inactive)	–	3.7 µM (inactive)	–

— ChEMBL document CHEMBL1201862, “PubChem BioAssay data set” (2004)
